Experimental data from patent US20180207111A1, “IMMUNOTHERAPY FOR CASR-EXPRESSING CANCER (E.G. NEUROBLASTOMA)” (HOSPITAL SANT JOAN DE DEU, priority 2015, published 2018).

Experiments:
[1] = test system: LA-N-1 cells subcutaneous xenograft; assay: In vivo neuroblastoma model: tumor growth / event-free survival; design: species or system mice; details: 10 mg/kg/day oral gavage 6 days per week vs vehicle; log-rank P=0.034; FIG. 2A
Protocol: An in vivo model of neuroblastoma was generated in four to six-week-old female athymic Nude-Foxn1 nu/nu mice (Charles Rivers), wherein LA-N-1 cells (10^7) were subcutaneously inoculated. Tumors were allowed to grow until dimensions reached 7×7 mm. Then mice were randomized to receive either vehicle (described below) or Cinacalcet (10 mg/kg/day) by oral gavage 6 days per week until tumor volume reached 2 cm^3. Cinacalcet was prepared with Mimpara® tablets (Amgen). Following homogenization of the Mimpara® tablets in a mortar, the resulting powder was reconstituted with 0.5% Tween 20 (20%, v/v) and carboxymethylcellulose (0.25%, w/v) to a final concentration of […]. Each dose contained 5 μL of this mixture per gram of mouse weight. Dimensions of tumors were measured thrice a week using a digital caliper. Tumor volume was calculated as L×W^2/2 in which “L” indicates length in mm and “W” indicates width in mm. At the end of the experiment (each mouse was sacrificed when the corresponding xenograft reached the final pre-determined volume 2 cm^3), tumors were excised and half of each specimen was frozen in liquid nitrogen for molecular analyses and the other was fixed in 10% formalin. For event-free survival (EFS) analysis, an event was defined as tumor size that exceeded 2 cm^3. The log-rank statistic was used to compare the EFS probabilities between groups. […]

SK-N-LP CaSR/GFP = assay: RT-qPCR mRNA expression in SK-N-LP CaSR/GFP neuroblastoma cells grown with Cinacalcet; assay type: cell-based, Homo sapiens; details: 1 μM Cinacalcet vs DMSO, up to 21 days
Protocol: (§1) Three neuroblastoma cell lines LA-N-1, SK-N-LP and SH-SY5Y were used for this purpose. […] No expression of the CaSR is detectable in SH-SY5Y either. Thus, SK-N-LP and SH-SY5Y were stably transfected with pCMV-CaSR-GFP or pCMV-GFP. All cell lines were grown in the presence of 1 μM Cinacalcet (Selleck Chemicals, S1260) or DMSO for 21 days in P100 plates. Morphology was assessed daily. Total RNA was isolated at days 1, 3, 5, 7, 10, 14 and 21. Several markers were analyzed by RT-qPCR using SYBRgreen and specific primers or Taqman technology and gene-specific Assays-on-Demand (Applied Biosystems) (Table 1).
(§2) These features reached maximal expression between days 7 and 14 (FIG. 1). […] Neuroblastoma cytodifferentiation is an indication of this tumor becoming more benign, less proliferative. […] Moreover, upregulation of these differentiation-associated genes and CTAs both in vitro and in vivo (see Examples 2-4) validates the proposed in vitro model (doses used, time of exposure, etc) as a good model to evaluate neuroblastoma response to treatment with Cinacalcet.

[2] = test system: normal surrounding tissues; assay: Genome-wide expression analysis of murine genes in xenograft RNAs, Affymetrix Mouse Gene Array 2.1 ST; assay type: in vivo
Protocol: Genome-wide expression analyses were performed using Affymetrix Human and Mouse Gene Array 2.1 ST (Affymetrix, reference number 902136 for human gene array and 902120 for mouse gene array) as per manufacturer's protocol. Procedures to analyze results included: Quality control of the arrays (following this step, xenograft C6 was removed from further analyses); filtering and normalization; selection of differentially expressed genes; single comparison (treated versus control samples); list of differentially expressed genes ranked by significance; Volcano plots showing the most differentially expressed genes; heatmaps of the clustered expression profiles; and analysis of biological significance through enrichment analysis against the Gene Ontologies, KEGG (Kyoto Encyclopedia of Genes and Genomes) and Ingenuity pathways.
In order to evaluate whether upregulation of CTAs was a tumor-specific effect or it was induced in normal surrounding tissues as well, a genome-wide expression analysis by means of microarrays was conducted using a chip to detect murine genes differentially expressed in the same RNAs analyzed in the human array.

LA-N-1 xenografts = assay: RT-qPCR mRNA expression in xenografts; assay type: in vivo, human
Protocol: Total RNA was isolated from 8 xenografts exposed to Cinacalcet (C) and 8 from the control group (V). These were the last 8 tumors excised in each group, so that analyzed xenografts were those exposed to the longest period of treatment (V5-V12 and C4-C11). Two different mRNA expression analyses were conducted: Genome-wide expression analysis by microarrays (Example 3) and by RT-qPCR (Example 4).
Validation of microarrays data was conducted by means of RT-qPCR. This technique was performed using SYBRgreen and specific primers or Taqman technology and gene-specific Assays-on-Demand (Applied Biosystems) (Table 1). This technique was also used to analyze the expression of other CTAs (members of the MAGE family and CTCFL), genes associated with differentiation and calcium-signaling pathways in further detail. Upregulation of CTCFL (FIG. 5A), MAGE A2, MAGE A3 and SSX4/48 (FIG. 5B), NTRK3 (FIG. 5C), ADCY8, PRKCA and RYR2 (FIG. 5D) was detected mainly in the two specimens exposed for the longest time to Cinacalcet (C10-C11).

SH-SY5Y CaSR/GFP = assay: RT-qPCR mRNA expression in SH-SY5Y CaSR/GFP neuroblastoma cells grown with Cinacalcet; assay type: cell-based, Homo sapiens; details: 1 μM Cinacalcet vs DMSO, up to 21 days
Protocol: as §1, §2

[3] = Mus musculus genes in xenograft RNAs, Cinacalcet vs vehicle, adjusted P 0.80678117
[4] = xenografts, RT-qPCR, mainly in C10-C11 (longest exposure), FIG. 5B
[5] = xenografts, RT-qPCR, mainly in C10-C11 (longest exposure), FIG. 5D

## C[C@@H](NCCCc1cccc(C(F)(F)F)c1)c1cccc2ccccc12 [Cinacalcet]
[1]
  Tumor growth (event-free survival, event = tumor size > 2 cm^3): significant tumor growth inhibition
SK-N-LP CaSR/GFP
  CTCFL mRNA fold increase: no expression
  MAGEA2 mRNA fold increase: 36.6 fold
  MAGEA3 mRNA fold increase: 155.4 fold
  NFL mRNA fold increase: 7.2 fold
  NTRK1 mRNA fold increase: 3.6 fold
  NTRK3 mRNA fold increase: 2.6 fold
  S100-β mRNA fold increase: 72.3 fold
  SSX4/4B mRNA fold increase: 69 fold
  TUBB3 mRNA fold increase: 2.8 fold
SK-N-LP CaSR/GFP; primer pair GAGE P1
  GAGE-P1 mRNA fold increase: 4.1 fold
SK-N-LP CaSR/GFP; primer pair GAGE P2
  GAGE-P2 mRNA fold increase: 5.7 fold
SK-N-LP CaSR/GFP; primer pair GAGE P3
  GAGE-P3 mRNA fold increase: 6.3 fold
[2]; Mus musculus genes in xenograft RNAs, Cinacalcet vs vehicle, adjusted P 0.60678117
  Log fold change, murine probe 17395227 (Gm14399): 1.067
[2]; Mus musculus genes in xenograft RNAs, Cinacalcet vs vehicle, adjusted P 0.80676117
  Log fold change, murine probe 17262250 (Tgtp2//Tgtp1): 1.108
[2]; [3]
  Log fold change, murine probe 17302054 (Snora31): 1.105
  Log fold change, murine probe 17352957 (Dsc1): 1.033
  Log fold change, murine probe 17380529 (Gm14419//Gm14391//Gm6710): 1.033
  Log fold change, murine probe 17386477 (Gm11084): 1.567
  Log fold change, murine probe 17458439 (Gpnmb): 1.221
  Log fold change, murine probe 17483098 (Gdpd3): 1.309
  Log fold change, murine probe 17503825 (Mmp2): 1.046
  Log fold change, murine probe 17546762 (LOC101055644//Mid1//MID1): 1.088
  Log fold change, murine probe 17546774 (Erdr1//Dock9): 1.341
[2]; murine microarray, also when C9-C11 analyzed, no gene significant (adjusted P-value >0.05)
  Upregulation of CTAs in normal surrounding (murine) tissues: CTAs were not amongst the over-expressed genes
LA-N-1 xenografts; xenograft specimen C11, long-term treatment, data not shown
  Increase in relative mRNA expression of GAGE mRNA: up to 100 fold
LA-N-1 xenografts; xenografts, RT-qPCR, mainly in C10-C11 (longest exposure), FIG. 5A
  Relative mRNA expression of CTCFL: Upregulation
LA-N-1 xenografts; [4]
  Relative mRNA expression of MAGE A2: Upregulation
  Relative mRNA expression of MAGE A3: Upregulation
  Relative mRNA expression of SSX4/48: Upregulation
LA-N-1 xenografts; xenografts, RT-qPCR, mainly in C10-C11 (longest exposure), FIG. 5C
  Relative mRNA expression of NTRK3: Upregulation
LA-N-1 xenografts; [5]
  Relative mRNA expression of ADCY8: Upregulation
  Relative mRNA expression of PRKCA: Upregulation
  Relative mRNA expression of RYR2: Upregulation
SH-SY5Y CaSR/GFP
  CTCFL mRNA fold increase: no expression
  MAGEA2 mRNA fold increase: 2.4 fold
  MAGEA3 mRNA fold increase: 14.6 fold
  NFL mRNA fold increase: 2.3 fold
  NTRK1 mRNA fold increase: 2.9 fold
  NTRK3 mRNA fold increase: 4.7 fold
  S100-β mRNA fold increase: 2.2 fold
  SSX4/4B mRNA fold increase: 3.45 fold
  TUBB3 mRNA fold increase: 1.7 fold
SH-SY5Y CaSR/GFP; primer pair GAGE P1
  GAGE-P1 mRNA fold increase: 1.4 fold
SH-SY5Y CaSR/GFP; primer pair GAGE P2
  GAGE-P2 mRNA fold increase: 7.9 fold
SH-SY5Y CaSR/GFP; primer pair GAGE P3
  GAGE-P3 mRNA fold increase: 2.5 fold
